{
  "source": "PubChem BioAssay AID2060601",
  "about": "(Molecular Pharmacology Branch, DTP, NCI, 2025)",
  "system": "874868-142-R-J2-PDC complex spheroids, growth % test/control",
  "experiment": "Anticancer human tumor 874868-142-R-J2-PDC patient-derived head and neck squamous carcinoma cell line growth inhibition [CLK]",
  "conditions": "for IC50: curve of first compound; for viability, T/C: stronger effect = lower value",
  "how_it_was_run": "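Patient-derived tumor cells grown as complex spheroids with HUVEC endothelial cells and mesenchymal stem cells, treated with drug combinations. Concentrations descend in half-log steps from near clinical Cmax, or from 10 microM if Cmax unknown.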",
  "data": [
    {"compound": "C=CC(=O)Nc1cc(Nc2nccc(-c3cn(C)c4ccccc34)n2)c(OC)cc1N(C)CCN(C)C", "note": "+ CNC(=O)c1ccc(Nc2nc(OC3CCCC3)c3c(-c4ccc5nc(C)oc5c4)c[nH]c3n2)c(OC)c1;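 note: spheroids exposed to the compounds for 7 days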;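 for viability, T/C: 100% = DMSO vehicle control viability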", "values": [
      {"measurement": "IC50", "setting": "second compound 0.0316 µM", "value": 35.9, "unit": "nM"},
      {"measurement": "IC50", "setting": "second compound 0.1 µM", "value": 22.2, "unit": "nM"},
      {"measurement": "IC50", "setting": "second compound 0.316 µM", "value": 4.75, "unit": "nM"},
      {"measurement": "IC50", "setting": "second compound 1 µM", "value": "< 0.949", "unit": "nM"},
      {"measurement": "IC50", "setting": "second compound 3.16 µM", "value": "< 0.949", "unit": "nM"},
      {"measurement": "IC50", "setting": "second compound 10 µM", "value": "< 0.949", "unit": "nM"},
      {"measurement": "viability, T/C", "setting": "second compound 0.0316 µM, first compound 0.000949 µM", "value": 101, "unit": "%"},
      {"measurement": "viability, T/C", "setting": "second compound 0.0316 µM, first compound 0.003 µM", "value": 115, "unit": "%"},
      {"measurement": "viability, T/C", "setting": "second compound 0.0316 µM, first compound 0.00949 µM", "value": 77.4, "unit": "%"},
      {"measurement": "viability, T/C", "setting": "second compound 0.0316 µM, first compound 0.03 µM", "value": 51.3, "unit": "%"},
      {"measurement": "viability, T/C", "setting": "second compound 0.0316 µM, first compound 0.0949 µM", "value": 45.7, "unit": "%"},
      {"measurement": "viability, T/C", "setting": "second compound 0.0316 µM, first compound 0.3 µM", "value": 23.9, "unit": "%"},
      {"measurement": "viability, T/C", "setting": "second compound 0.1 µM, first compound 0.000949 µM", "value": 103, "unit": "%"},
      {"measurement": "viability, T/C", "setting": "second compound 0.1 µM, first compound 0.003 µM", "value": 75, "unit": "%"},
      {"measurement": "viability, T/C", "setting": "second compound 0.1 µM, first compound 0.00949 µM", "value": 57.5, "unit": "%"},
      {"measurement": "viability, T/C", "setting": "second compound 0.1 µM, first compound 0.03 µM", "value": 52.4, "unit": "%"},
      {"measurement": "viability, T/C", "setting": "second compound 0.1 µM, first compound 0.0949 µM", "value": 30.6, "unit": "%"},
      {"measurement": "viability, T/C", "setting": "second compound 0.1 µM, first compound 0.3 µM", "value": 19.8, "unit": "%"},
      {"measurement": "viability, T/C", "setting": "second compound 0.316 µM, first compound 0.000949 µM", "value": 64.4, "unit": "%"},
      {"measurement": "viability, T/C", "setting": "second compound 0.316 µM, first compound 0.003 µM", "value": 48.9, "unit": "%"},
      {"measurement": "viability, T/C", "setting": "second compound 0.316 µM, first compound 0.00949 µM", "value": 48, "unit": "%"},
      {"measurement": "viability, T/C", "setting": "second compound 0.316 µM, first compound 0.03 µM", "value": 38.5, "unit": "%"},
      {"measurement": "viability, T/C", "setting": "second compound 0.316 µM, first compound 0.0949 µM", "value": 24.8, "unit": "%"},
      {"measurement": "viability, T/C", "setting": "second compound 0.316 µM, first compound 0.3 µM", "value": 24.3, "unit": "%"},
      {"measurement": "viability, T/C", "setting": "second compound 1 µM, first compound 0.000949 µM", "value": 48.9, "unit": "%"},
      {"measurement": "viability, T/C", "setting": "second compound 1 µM, first compound 0.003 µM", "value": 40.5, "unit": "%"},
      {"measurement": "viability, T/C", "setting": "second compound 1 µM, first compound 0.00949 µM", "value": 38.6, "unit": "%"},
      {"measurement": "viability, T/C", "setting": "second compound 1 µM, first compound 0.03 µM", "value": 32.5, "unit": "%"},
      {"measurement": "viability, T/C", "setting": "second compound 1 µM, first compound 0.0949 µM", "value": 26.4, "unit": "%"},
      {"measurement": "viability, T/C", "setting": "second compound 1 µM, first compound 0.3 µM", "value": 14.4, "unit": "%"},
      {"measurement": "viability, T/C", "setting": "second compound 3.16 µM, first compound 0.000949 µM", "value": 43.4, "unit": "%"},
      {"measurement": "viability, T/C", "setting": "second compound 3.16 µM, first compound 0.003 µM", "value": 39.6, "unit": "%"},
      {"measurement": "viability, T/C", "setting": "second compound 3.16 µM, first compound 0.00949 µM", "value": 38, "unit": "%"},
      {"measurement": "viability, T/C", "setting": "second compound 3.16 µM, first compound 0.03 µM", "value": 31.5, "unit": "%"},
      {"measurement": "viability, T/C", "setting": "second compound 3.16 µM, first compound 0.0949 µM", "value": 25.5, "unit": "%"},
      {"measurement": "viability, T/C", "setting": "second compound 3.16 µM, first compound 0.3 µM", "value": 20, "unit": "%"},
      {"measurement": "viability, T/C", "setting": "second compound 10 µM, first compound 0.000949 µM", "value": 41.8, "unit": "%"},
      {"measurement": "viability, T/C", "setting": "second compound 10 µM, first compound 0.003 µM", "value": 37.7, "unit": "%"},
      {"measurement": "viability, T/C", "setting": "second compound 10 µM, first compound 0.00949 µM", "value": 32.7, "unit": "%"},
      {"measurement": "viability, T/C", "setting": "second compound 10 µM, first compound 0.03 µM", "value": 32.3, "unit": "%"},
      {"measurement": "viability, T/C", "setting": "second compound 10 µM, first compound 0.0949 µM", "value": 28, "unit": "%"},
      {"measurement": "viability, T/C", "setting": "second compound 10 µM, first compound 0.3 µM", "value": 18.3, "unit": "%"}
    ]}
  ]
}
